Usually MIC stands for the lowest concentration found to suppress growth.

For one compound, watersolubility and MIC results are on record in EP0917880A1, “Inclusion complex of diiodomethyl-p-tolylsulfone with cyclodextrin derivatives” (Wacker-Chemie GmbH, priority 1997, dated 1999).

For series [1] the following is noted: water; cited from earlier work.
A further series concerns Penicillium citrinum. Description: Determination of Minimum Inhibitory Concentrations (MIC), Sabouraud media. Format: cell-based. As to conditions: Amical in free form. How it is done:
(§1) The efficacy of Amical in comparison to Amical/methyl-β-cyclodextrin inclusion compound against different microorganism was tested by measuring the Minimum Inhibitory Concentrations (MIC in µg/ml). For the cell cultures Sabouraud media were used. […]

The next series deals with Aspergillus niger. The series is described as above. As to conditions: Amical in free form. Format: cell-based. The method, then: as §1
For series [2], the system named is Cladosporium cladosporioides. Described as above. It counts as cell-based. As to conditions: Amical in free form. The method, then: as §1
For a further series, the system named is Rhizopus oryzae. The series is described as above. As to conditions: Rhizopus arrhizus, Amical in free form. It counts as cell-based. How it is done: as §1

`Cc1ccc(S(=O)(=O)C(I)I)cc1` [Amical, diiodomethyl-p-tolylsulfone]: the watersolubility result in series [1] is reported as “less than 5 ppm”. Also, the MIC with Penicillium citrinum was 3.8 µg/mL; in the series with Aspergillus niger, 1.2 µg/mL; in series [2], 1.3 µg/mL; with Rhizopus oryzae, 7.5 to 14 µg/mL.
